# Measured values published in PMC11851430, “Workflow for E3 Ligase Ligand Validation for PROTAC Development” (ACS Chemical Biology, 2025).
# Where two headings read alike, the source gives them in different places.
# Legend:
# [1] = tested on: kinase expression levels in Jurkat cells; test: Label-free quantitative proteomics of kinase parent inhibitors; format: cell-based, human; conditions: 6 h
# Protocol: CO2. After incubation, the BRET signals were measured by a PHERAstar plate reader (BMG Labtech) following the same procedure as intact NanoBRET® measurement. Competitive displacement data were then normalized to controls and were plotted using GraphPad Prism 9 software employing a normalized 3-parameter curve fit with the following equation: […]
# The effects of the compounds on cell viability was determined using the CellTiter-Glo® 2.0 Cell Viability Assay (Promega: G9241) following manufacturer’s protocol. Ten µL of Jurkat cells at […]
# After equilibration, PROTACs were titrated at various concentrations using an Echo acoustic […]
# volume of CellTiter-Glo® 2.0 reagent (10 µL) was added to each well and cells were incubated for 10 minutes at room temperature. Filtered luminescence was measured on a PHERAstar plate reader (BMG Labtech) and data was evaluated using GraphPad Prism 9 software employing a normalized curve it with the following equation: Y=Bottom + (Top-Bottom)/(1+10(LogEC50-X) *HillSlope).
# Sample preparation. Jurkat cells (ATCC © HTB-22) were cultured in RPMI (Thermo:
# Cells were seeded in 6 well plates (Greiner:
# 50 µl of SDS Lysis Buffer (2% SDS, 50 mM TRIS pH 8.5, 10 mM TCEP, 40 mM CAA) was added to each sample. Cells were transferred into low binding reaction tubes (Eppendorf: […]
# Protein yield was determined by […]
# ABL1 = target: T1, ABL1 (Homo sapiens, UniProt P00519); test: Kinobeads selectivity profiling; format: binding; conditions: Jurkat lysate, dose series given in nM, read-out: Kd (apparent dissociation constant, corrected for protein depletion)
# T1 construct: endogenous in cells; host or cells: Jurkat (Clone E6.1) cell lysate
# T1 sequence (P00519 whole entry): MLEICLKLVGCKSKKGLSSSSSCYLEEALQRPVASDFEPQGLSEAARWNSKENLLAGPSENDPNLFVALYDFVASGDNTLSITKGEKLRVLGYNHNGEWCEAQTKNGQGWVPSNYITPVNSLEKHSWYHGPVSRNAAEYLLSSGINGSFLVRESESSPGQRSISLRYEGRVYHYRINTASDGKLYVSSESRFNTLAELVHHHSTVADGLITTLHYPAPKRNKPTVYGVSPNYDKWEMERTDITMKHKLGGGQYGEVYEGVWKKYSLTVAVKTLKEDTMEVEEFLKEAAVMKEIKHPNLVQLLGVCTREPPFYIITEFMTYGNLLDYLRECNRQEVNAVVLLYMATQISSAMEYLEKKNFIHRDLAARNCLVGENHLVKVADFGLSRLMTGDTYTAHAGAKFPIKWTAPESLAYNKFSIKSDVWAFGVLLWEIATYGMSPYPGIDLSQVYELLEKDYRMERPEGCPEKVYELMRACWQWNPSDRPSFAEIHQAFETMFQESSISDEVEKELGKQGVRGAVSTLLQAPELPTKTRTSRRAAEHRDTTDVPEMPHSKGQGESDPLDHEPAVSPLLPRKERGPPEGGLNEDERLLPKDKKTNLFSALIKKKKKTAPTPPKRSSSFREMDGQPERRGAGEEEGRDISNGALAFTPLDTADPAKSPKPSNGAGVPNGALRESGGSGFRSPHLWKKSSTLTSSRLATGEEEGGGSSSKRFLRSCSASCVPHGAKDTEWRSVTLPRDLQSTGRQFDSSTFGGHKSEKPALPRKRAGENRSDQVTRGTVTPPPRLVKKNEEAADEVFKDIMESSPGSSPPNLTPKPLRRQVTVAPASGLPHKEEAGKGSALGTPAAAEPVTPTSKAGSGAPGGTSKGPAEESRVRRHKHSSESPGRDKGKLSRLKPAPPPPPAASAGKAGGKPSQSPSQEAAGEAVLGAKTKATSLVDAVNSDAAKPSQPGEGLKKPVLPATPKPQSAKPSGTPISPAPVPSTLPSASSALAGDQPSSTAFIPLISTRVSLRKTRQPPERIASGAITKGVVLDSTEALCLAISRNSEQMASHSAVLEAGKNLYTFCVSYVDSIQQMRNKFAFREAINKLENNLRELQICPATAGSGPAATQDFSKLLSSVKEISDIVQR
# Protocol: Excitation and emission filters […]
# curve. […] Measurements were
# Kinobeads selectivity profiling of PROTACs
# (Multiplexion, Heidelberg, Germany).
# The cell lysate was ultracentrifuged and diluted
# NaF, 1 mM DTT, protease inhibitors and phosphatase inhibitors to a final concentration of 5 mg/ml as determined by Bradford assay. For selectivity profiling of compounds the cell lysate (2.5 mg of total proteins per pulldown) was pre-incubated with increasing compound […]
# µM) for 45 min at 4 °C in an end-over-end shaker. Subsequently, lysates were incubated with Kinobeads epsilon (17 µL settled beads) for 30 min at 4 °C. To assess the degree of protein depletion from the lysates by Kinobeads, the flow-through of the DMSO control was recovered […]
# for a pulldown of pulldown experiment where the lysate was incubated a second time with fresh Kinobeads. Beads were washed in 3 steps with buffer containing 0.4%, 0.2% and no NP40.
# Bound proteins were reduced with 50 mM DTT in 8 M Urea, 40 mM Tris-HCl pH 7.4 for 30 min at room temperature. After alkylation with 55 mM chloroacetamide (CAA), the Urea concentration was reduced to 1 – 2 M and proteins were digested using trypsin. Acidified peptides were desalted and concentrated using SepPak tC18 µEluation plates (Waters).
# Samples were frozen, dried by vacuum centrifugation and stored at -20 °C.
# LC-MS2 analysis. Peptides were measured on a Dionex Ultimate3000 nano HPLC coupled online to an Orbitrap Fusion Lumos (Thermo Fisher Scientific) mass spectrometer.
# Peptides were dissolved in 0.1% formic acid and delivered to a trap column (ReproSil-pur C18-AQ, 5 μm, Dr. Maisch, 20 mm × 75 μm, self-packed) at a flow rate of 5 μL/min in LC solvent A (0.1 % formic acid).4 After 10 min of loading, peptides were transferred to an analytical column (ReproSil Gold C18-AQ, 3 μm, Dr. Maisch, 400 mm × 75 μm, self-packed) and separated using […]
# acetonitrile) in LC solvent A.
# The Orbitrap Fusion Lumos was operated as follows: positive polarity; spray voltage 2.1 kV, […]
# A full-scan (MS1) was recorded from 360 to 1300 m/z with a resolution of 60,000 in the Orbitrap in profile mode. The MS1 AGC target was set to 4e5 and the maxIT was set to 50 ms, RF lens value was set to 50%. Based on the full scans, precursors were targeted for the MS/MS scans […]
# intensity exceeded 2.5e4. The dynamic exclusion was set to 30 sec and exclude isotopes was switched on. The MS2 quadrupole isolation window was set to 1.7 m/z. Peptide fragmentation occurred in the ion routing multipole (IRM) by HCD with a fixed collision energy mode, the […]
# full-length AAK1 [2] = target: T2, full-length AAK1 (Homo sapiens, UniProt Q2M2I8); test: cell-based; parameters: species or system HEK293T; NanoBRET tracer displacement in permeabilized cells, NanoLuc fusion protein, Tracer K10; conditions: permeabilized cells; read-out: AAK1 permeabilized (IC50±sd)/µM
# T2 sequence (Q2M2I8 whole entry, the tested form may be a part): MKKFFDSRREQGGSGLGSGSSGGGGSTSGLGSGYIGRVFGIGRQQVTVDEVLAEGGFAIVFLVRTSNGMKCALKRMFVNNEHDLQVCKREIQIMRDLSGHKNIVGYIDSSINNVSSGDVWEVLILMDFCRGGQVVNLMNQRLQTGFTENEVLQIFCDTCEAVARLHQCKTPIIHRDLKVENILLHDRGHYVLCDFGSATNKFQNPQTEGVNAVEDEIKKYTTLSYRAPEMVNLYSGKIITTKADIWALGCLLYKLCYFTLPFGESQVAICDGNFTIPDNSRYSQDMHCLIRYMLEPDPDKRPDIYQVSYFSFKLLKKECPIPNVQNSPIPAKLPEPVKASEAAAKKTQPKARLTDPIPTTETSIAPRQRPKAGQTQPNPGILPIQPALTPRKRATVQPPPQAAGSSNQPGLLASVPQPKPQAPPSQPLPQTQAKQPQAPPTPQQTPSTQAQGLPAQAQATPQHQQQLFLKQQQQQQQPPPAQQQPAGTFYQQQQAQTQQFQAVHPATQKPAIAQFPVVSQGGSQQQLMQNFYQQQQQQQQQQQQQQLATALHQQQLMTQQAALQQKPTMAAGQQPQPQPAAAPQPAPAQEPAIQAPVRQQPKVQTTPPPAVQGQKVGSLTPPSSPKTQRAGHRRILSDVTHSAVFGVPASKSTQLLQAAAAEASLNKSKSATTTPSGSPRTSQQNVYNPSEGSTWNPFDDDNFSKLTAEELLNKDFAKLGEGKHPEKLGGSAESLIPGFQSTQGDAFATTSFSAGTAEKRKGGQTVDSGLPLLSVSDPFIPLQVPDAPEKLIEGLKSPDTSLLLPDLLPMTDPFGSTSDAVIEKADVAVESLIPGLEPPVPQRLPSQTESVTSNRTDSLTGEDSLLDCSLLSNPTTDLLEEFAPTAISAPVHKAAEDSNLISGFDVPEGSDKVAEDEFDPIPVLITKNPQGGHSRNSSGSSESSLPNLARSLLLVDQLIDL
# AURKA [3] = target: T3, AURKA (Homo sapiens, UniProt O14965); test: cell-based; parameters: species or system HEK293T; NanoBRET tracer displacement in permeabilized cells, NanoLuc fusion protein, Tracer K10; conditions: permeabilized cells; read-out: AURKA permeabilized (IC50±sd)/µM
# T3 sequence (O14965 1-403): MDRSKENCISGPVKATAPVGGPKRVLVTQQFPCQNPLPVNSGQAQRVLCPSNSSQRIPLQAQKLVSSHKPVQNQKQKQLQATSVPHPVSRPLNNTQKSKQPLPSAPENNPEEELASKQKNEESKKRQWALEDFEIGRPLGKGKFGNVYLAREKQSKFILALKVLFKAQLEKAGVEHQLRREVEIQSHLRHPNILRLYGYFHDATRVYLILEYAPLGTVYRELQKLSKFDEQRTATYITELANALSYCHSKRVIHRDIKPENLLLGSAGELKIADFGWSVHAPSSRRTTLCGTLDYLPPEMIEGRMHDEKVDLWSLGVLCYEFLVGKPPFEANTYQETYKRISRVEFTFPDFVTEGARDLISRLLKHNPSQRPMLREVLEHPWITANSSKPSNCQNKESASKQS
# full-length AAK1 [4] = target: T2, full-length AAK1; test: cell-based; parameters: species or system HEK293T; NanoBRET tracer displacement in intact cells, NanoLuc fusion protein, Tracer K10; conditions: intact cells; read-out: AAK1 intact (IC50±sd)/µM
# Excerpt: (§1) Compounds were pipetted at various concentrations using an Echo acoustic dispenser (Labcyte), immediately followed by Tracer K10 (Promega, Tracer DB ID: T000008) for AAK1 and Aurora A and VHL Tracer (Promega, Tracer DB ID: T000019) for VHL, at an optimum KD concentration chosen from TracerDB (tracerdb.org), respectively.
# AURKA [5] = target: T3, AURKA; test: cell-based; parameters: species or system HEK293T; NanoBRET tracer displacement in intact cells, NanoLuc fusion protein, Tracer K10; conditions: intact cells; read-out: AURKA intact (IC50±sd)/µM
# Excerpt: as §1
smiles,measurement,setting,value
CCOC(=O)c1cc(Nc2cc(C3CC3)[nH]n2)nc(Nc2ccc(CC#N)cc2)n1 [compound 5],kinases with reduced protein levels,[1]; 0.25 μM,reduced protein levels of PLK1 and BUB1
same,kinases with reduced protein levels,[1]; 2.5 μM,no additional kinases showed lower protein levels
CC(C)(C)OC(=O)NCCCOCCOCCOCCCNC(=O)c1cc(Nc2cc(C3CC3)[nH]n2)nc(Nc2ccc(CC#N)cc2)n1 [5-L],Kd,ABL1,4950 nM
Cc1ncsc1-c1ccc(CNC(=O)[C@@H]2C[C@H](O)CN2C(=O)[C@@H](NC(=O)CCOCCOCCOCCN2CCN(c3cc(Nc4cc(C5CC5)[nH]n4)nc(Nc4ccc(CC#N)cc4)n3)CC2)C(C)(C)C)cc1 [4-a^neg],IC50,full-length AAK1 [2],0.04 ± 0.001 µM
same,IC50,AURKA [3],1.89 ± 0.025 µM
same,IC50,full-length AAK1 [4],0.108 ± 0.042 µM
same,IC50,AURKA [5],5.04 ± 1.12 µM
CC(C)(C)OC(=O)NCCOCCOCCOCCOCCC(=O)N1CCN(c2cc(Nc3cc(C4CC4)[nH]n3)nc(Nc3ccc(CC#N)cc3)n2)CC1 [4-L],Kd,ABL1,2200 nM
